Laboratory results: the supplement of paper PMC11061612

Key:
[1] = tested on: VCaP (Prostate Carcinoma); assay: combination Emax (second highest fraction inhibited in the dose matrix, 72 h); higher = more inhibition; extreme values may be limits of the assay
Summary of the method: (§1)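 Bliss excess equals the observed combination effect minus the expected value EA + EB − EA·EB, where EA and EB are the effects of each agent alone. Combination Emax is the second-highest inhibition within the matrix. Inhibition was scaled from CellTiter-Glo 2.0 luminescence, with 0 set by vehicle wells and 1 by blank wells, after 72 hours of two-drug dosing of cells plated in 1536-well plates.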

[2] = tested on: A3-KAW (B-Cell Non-Hodgkin's Lymphoma); assay: as above
Summary of the method: as §1

[3] = tested on: NCI-H1581 (Non-Small Cell Lung Carcinoma); assay: as above
Summary of the method: as §1

[4] = tested on: TT2609-C02 (Thyroid Gland Carcinoma); assay: as above
Summary of the method: as §1

[5] = tested on: NCI-H2066 (Squamous Cell Lung Carcinoma); assay: as above
Summary of the method: as §1

[6] = tested on: COLO-824 (Breast Carcinoma); assay: as above
Summary of the method: as §1

FU97 (Gastric Carcinoma) = assay: as above
Summary of the method: as §1

[7] = tested on: JSC-1 (B-Cell Non-Hodgkin's Lymphoma); assay: as above
Summary of the method: as §1

GI-ME-N (Neuroblastoma) = assay: as above
Summary of the method: as §1

[8] = tested on: CCK-81 (Colorectal Carcinoma); assay: as above
Summary of the method: as §1

[9] = tested on: ONS-76 (Other Solid Carcinomas); assay: as above
Summary of the method: as §1

[10] = tested on: KARPAS-422 (B-Cell Non-Hodgkin's Lymphoma); assay: as above
Summary of the method: as §1

[11] = tested on: A549 (Lung Adenocarcinoma); assay: as above
Summary of the method: as §1

[12] = tested on: HCC1954 (Breast Carcinoma); assay: as above
Summary of the method: as §1

[13] = tested on: NCI-H1650 (Lung Adenocarcinoma); assay: as above
Summary of the method: as §1

8-MG-BA (Glioblastoma) = assay: as above
Summary of the method: as §1

NCI-H2591 (Mesothelioma) = assay: as above
Summary of the method: as §1

[14] = tested on: OS-RC-2 (Kidney Carcinoma); assay: Bliss excess, mean over the matrix (fraction); higher = more synergy
Summary of the method: as §1

[15] = tested on: COLO-320-HSR (Colorectal Carcinoma); assay: as above
Summary of the method: as §1

[16] = tested on: TT (Thyroid Gland Carcinoma); assay: as above
Summary of the method: as §1

COc1cccc(OCCCN)c1-c1cc(Nc2cnc(C#N)cn2)n[nH]1 [Prexasertib] + C=CCn1c(=O)c2cnc(Nc3ccc(N4CCN(C)CC4)cc3)nc2n1-c1cccc(C(C)(C)O)n1 [AZD1775] (first compound max 1 µM, partner max 1 µM)
combination Emax [1]: 0.774 | combination Emax [2]: 1 | combination Emax [3]: 0.75 | combination Emax [4]: 0.449 | combination Emax [5]: 0.621 | combination Emax [6]: 0.861 | combination Emax (FU97 (Gastric Carcinoma)): 0.367 | combination Emax [7]: 0.998 | combination Emax (GI-ME-N (Neuroblastoma)): 0.513 | combination Emax [8]: 0.945 | combination Emax [9]: 0.829 | combination Emax [10]: 0.985 | combination Emax [11]: 0.776 | combination Emax [12]: 0.963 | combination Emax [13]: 0.6 | combination Emax (8-MG-BA (Glioblastoma)): 0.977 | combination Emax (NCI-H2591 (Mesothelioma)): 0.472 | Bliss excess [14]: -0.0531 | Bliss excess [15]: 0.136 | Bliss excess [16]: -0.103

COc1cccc(OCCCN)c1-c1cc(Nc2cnc(C#N)cn2)n[nH]1 [Prexasertib] + CCc1c2c(nc3ccc(O)cc13)-c1cc3c(c(=O)n1C2)COC(=O)[C@]3(O)CC [SN-38] (first compound max 1 µM, 7x7, partner max 0.3 µM)
combination Emax [1]: 0.748 | combination Emax [2]: 1 | combination Emax [3]: 0.897 | combination Emax [4]: 0.95 | combination Emax [5]: 0.5 | combination Emax [6]: 1 | combination Emax (FU97 (Gastric Carcinoma)): 0.423 | combination Emax [7]: 0.987 | combination Emax (GI-ME-N (Neuroblastoma)): 0.529 | combination Emax [8]: 0.835 | combination Emax [9]: 0.867 | combination Emax [10]: 1 | combination Emax [11]: 0.796 | combination Emax [12]: 0.929 | combination Emax [13]: 0.778 | combination Emax (8-MG-BA (Glioblastoma)): 0.989 | combination Emax (NCI-H2591 (Mesothelioma)): 0.791 | Bliss excess [14]: -0.0392 | Bliss excess [15]: 0.115 | Bliss excess [16]: -0.0758

COc1cccc(OCCCN)c1-c1cc(Nc2cnc(C#N)cn2)n[nH]1 [Prexasertib] + CN(C)CCCOc1ccc(-c2ccc3ncc4c(c3c2)n(C2CCOCC2)c(=O)n4C)cn1 [AZD0156] (first compound max 1 µM, 7x7, partner max 1 µM)
combination Emax [1]: 0.741 | combination Emax [2]: 1 | combination Emax [3]: 0.284 | combination Emax [4]: 0.335 | combination Emax [5]: 0.402 | combination Emax [6]: 0.785 | combination Emax (FU97 (Gastric Carcinoma)): 0.386 | combination Emax [7]: 1 | combination Emax (GI-ME-N (Neuroblastoma)): 0.529 | combination Emax [8]: 0.927 | combination Emax [9]: 0.862 | combination Emax [10]: 0.904 | combination Emax [11]: 0.536 | combination Emax [12]: 0.862 | combination Emax [13]: 0.51 | combination Emax (8-MG-BA (Glioblastoma)): 0.934 | combination Emax (NCI-H2591 (Mesothelioma)): 0.305 | Bliss excess [14]: -0.0393 | Bliss excess [15]: 0.0111 | Bliss excess [16]: -0.004

COc1cccc(OCCCN)c1-c1cc(Nc2cnc(C#N)cn2)n[nH]1 [Prexasertib] + C[C@@H]1COCCN1C2=NC(=NC(=C2)C3(CC3)[S@](=N)(=O)C)C4=C5C=CNC5=NC=C4 [AZD6738] (first compound max 1 µM, 7x7, partner max 10 µM)
combination Emax [1]: 0.718 | combination Emax [2]: 1 | combination Emax [3]: 0.566 | combination Emax [4]: 0.263 | combination Emax [5]: 0.454 | combination Emax [6]: 0.796 | combination Emax (FU97 (Gastric Carcinoma)): 0.308 | combination Emax [7]: 0.995 | combination Emax (GI-ME-N (Neuroblastoma)): 0.563 | combination Emax [8]: 0.929 | combination Emax [9]: 0.903 | combination Emax [10]: 0.88 | combination Emax [11]: 0.864 | combination Emax [12]: 0.878 | combination Emax [13]: 0.519 | combination Emax (8-MG-BA (Glioblastoma)): 0.926 | combination Emax (NCI-H2591 (Mesothelioma)): 0.519 | Bliss excess [14]: 0.0743 | Bliss excess [15]: -0.0406 | Bliss excess [16]: 0.0244

COc1cccc(OCCCN)c1-c1cc(Nc2cnc(C#N)cn2)n[nH]1 [Prexasertib] + Cc1cc2ncnn2cc1Nc1ncc2c(n1)n(C1CCOCC1)c(=O)n2C [AZD7648] (first compound max 1 µM, 7x7, partner max 10 µM)
combination Emax [1]: 0.729 | combination Emax [2]: 1 | combination Emax [3]: 0.418 | combination Emax [4]: 0.276 | combination Emax [5]: 0.437 | combination Emax [6]: 0.783 | combination Emax (FU97 (Gastric Carcinoma)): 0.367 | combination Emax [7]: 1 | combination Emax (GI-ME-N (Neuroblastoma)): 0.563 | combination Emax [8]: 0.903 | combination Emax [9]: 0.862 | combination Emax [10]: 0.908 | combination Emax [11]: 0.63 | combination Emax [12]: 0.843 | combination Emax [13]: 0.55 | combination Emax (8-MG-BA (Glioblastoma)): 0.951 | combination Emax (NCI-H2591 (Mesothelioma)): 0.415 | Bliss excess [14]: -0.0226 | Bliss excess [15]: -0.0037 | Bliss excess [16]: -0.0144

COc1cccc(OCCCN)c1-c1cc(Nc2cnc(C#N)cn2)n[nH]1 [Prexasertib] + O=C(c1cc(Cc2n[nH]c(=O)c3ccccc23)ccc1F)N1CCN(C(=O)C2CC2)CC1 [Olaparib] (first compound max 1 µM, 7x7, partner max 10 µM)
combination Emax [1]: 0.797 | combination Emax [2]: 1 | combination Emax [3]: 0.563 | combination Emax [4]: 0.329 | combination Emax [5]: 0.316 | combination Emax [6]: 0.77 | combination Emax (FU97 (Gastric Carcinoma)): 0.299 | combination Emax [7]: 0.996 | combination Emax (GI-ME-N (Neuroblastoma)): 0.452 | combination Emax [8]: 0.841 | combination Emax [9]: 0.793 | combination Emax [10]: 0.92 | combination Emax [11]: 0.614 | combination Emax [12]: 0.866 | combination Emax [13]: 0.494 | combination Emax (8-MG-BA (Glioblastoma)): 0.969 | combination Emax (NCI-H2591 (Mesothelioma)): 0.21 | Bliss excess [14]: -0.0181 | Bliss excess [15]: -0.131 | Bliss excess [16]: -0.141

COc1cc2c(cc1OCCCCCOc1cc3c(cc1OC)C(=O)N1C=C(C)C[C@H]1C=N3)N=C[C@@H]1CC(C)=CN1C2=O [SG3199] + O=C(c1cc(Cc2n[nH]c(=O)c3ccccc23)ccc1F)N1CCN(C(=O)C2CC2)CC1 [Olaparib] (first compound max 0.001 µM, 7x7, partner max 10 µM)
combination Emax [1]: 0.0785 | combination Emax [2]: 0.595 | combination Emax [3]: 0.136 | combination Emax [4]: 0.166 | combination Emax [5]: 0.108 | combination Emax [6]: 0.147 | combination Emax (FU97 (Gastric Carcinoma)): 0.156 | combination Emax [7]: 0.116 | combination Emax (GI-ME-N (Neuroblastoma)): 0.161 | combination Emax [8]: 0.184 | combination Emax [9]: 0.206 | combination Emax [10]: 0.258 | combination Emax [11]: 0.234 | combination Emax [12]: 0.165 | combination Emax [13]: 0.0953 | combination Emax (8-MG-BA (Glioblastoma)): 0.267 | combination Emax (NCI-H2591 (Mesothelioma)): 0.118 | Bliss excess [14]: -0.0484 | Bliss excess [15]: -0.0213 | Bliss excess [16]: -0.0645
